Measured values reported in patent publication US11730792B2, “Coversin (OmCI) for the treatment of autoimmune blistering diseases: bullous pemphigoid (BP) and epidermolysis bullosa acquisita (EBA)” (VOLUTION IMMUNO PHARMACEUTICALS SA, priority 2017, dated 2023).
“Also recorded” adds a separate entry of the source.

Columns and labels:
[1] = target: T1, Ornithodoros moubata Coversin (EV576, OmCI), amino acids 19 to 168 of SEQ ID NO: 2 (SEQ ID NO: 4) (Ornithodoros moubata, UniProt Q5YD59); assay: LTB4 binding to Coversin by fluorescence titration
T1 sequence (Q5YD59 19-168): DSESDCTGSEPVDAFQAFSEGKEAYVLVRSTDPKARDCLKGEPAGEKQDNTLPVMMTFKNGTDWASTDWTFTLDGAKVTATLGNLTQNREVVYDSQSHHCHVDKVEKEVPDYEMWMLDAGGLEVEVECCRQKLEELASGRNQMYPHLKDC
Description: This may be carried out by may be carried out as follows:
Purified 100 nM solutions of Coversin, in 2 mL PBS were applied in a quartz cuvette (10 mm path length; Hellma, Malheim, Germany) equipped with a magnetic stirrer. Temperature was adjusted to 20° C. and, after equilibrium was reached, protein Tyr/Trp fluorescence was excited at 280 nm (slit width: 15 nm). The fluorescence emission was measured at 340 nm (slit width: 16 nm) corresponding to the emission maximum. […] For calculation of the KD value, data was normalized to an initial fluorescence intensity of 100%, the inner filter effect was corrected using a titration of 3 μM N-acetyl-tryptophanamide solution and data was plotted against the corresponding ligand concentration. Then, non-linear least squares regression based on the law of mass action for bimolecular complex formation was used to fit the data with Origin software version 8.5 (OriginLab, Northampton, Mass., USA) using a published formula (Breustedt et al., 2006).

Experimental EBA [2] = conditions: ref [44], cited from earlier work
[3] = system: Antibody transfer EBA-like skin inflammation; assay: Passive EBA mouse model, Coversin administered therapeutically from day 5 (Example 2); type: in vivo, C57Bl/6J WT mice; conditions: for Two-way ANOVA, vehicle control versus Coversin: all doses used, N=5 per group
Description: The study included the following experimental groups, with 5 mice in each experimental group: • 1. Vehicle (PBS) control group • 2. 125 μg/kg Coversin 2× daily s.c. • 3. 2500 μg/kg Coversin 2× daily s.c.
Antibody transfer EBA-like skin inflammation was induced, as described in Sezin et al.
The treatment of mice with Coversin started on Day 5 of the experiment (Day 0=day of first administration of anti-COL7 antibody). Afterwards, mice were injected 12 hourly s.c. in the scapular region with Coversin or vehicle control until the end of the experiment.
Disease severity was scored. […] The percentage of the absolute body surface affected by skin lesions (ABSA) was calculated. To score the disease, the mice were anesthetized every other day with a mixture of ketamine/xylazine administered i.p. starting day 4 of the experiment.
Two independent experiments were conducted according to this protocol.
Prior to the beginning of the experiment mean weight of the mice was calculated and 2.5 mg/kg and 0.125 mg/kg of the drug were prepared freshly to a final volume of 100 μl in PBS pH 7.2. The drug was prepared freshly, twice daily, 30 minutes before the final injection into the mice. Thereafter, based on the mean weight of the mice the drug was adjusted with PBS pH 7.2 to a concentration appropriate to provide the required mg/kg dose in a final volume of 100 μl. Drug was prepared freshly twice daily, 30 minutes before the final application into the animals. As a vehicle control 100 μl of PBS pH 7.2 was injected s.c into the mice.
ABSA between treatment groups was evaluated by two-way ANOVA conducted using GraphPad Prism 7.

C5 [4] = target: T2, C5 (Rattus norvegicus, UniProt P08650); assay: Prevention of C5 cleavage by C5 convertase in rat serum; type: biochemical
T2 construct: from tissue; host or cells: rat serum
Description: (§1) Coversin was isolated from the salivary glands of the tick Ornithodoros moubata. Coversin is an outlying member of the lipocalin family and is the first lipocalin family member shown to inhibit complement activation. Coversin inhibits the classical, alternative and lectin complement pathways by binding to C5 and preventing its cleavage by C5 convertase into C5a and C5b, thus inhibiting both the production of C5a, which is an active (e.g. proinflammatory) peptide, and the formation of the MAC.

C5 [5] = target: T3, C5 (Homo sapiens, UniProt P01031); assay: Prevention of C5 cleavage by C5 convertase in human serum; type: biochemical; design: from tissue; host or cells: human serum
Description: as §1

experimental EBA [6] = assay: Antibody transfer EBA model, Coversin administered prophylactically (Example 1); type: in vivo, mice; design: Two-way ANOVA, vehicle control versus Coversin: dose or concentration left out as unconfirmed; conditions: for Two-way ANOVA, vehicle control versus Coversin: combined experiments 1 and 2; for percentage ABSA: prophylactic
Description: (§2) Antibody transfer EBA was induced using a modified version of the protocol described by Sitaru et al., 2005 [43]. Five mice were tested in each treatment group. […] Mice were injected subcutaneously twice daily with three varying doses of Coversin starting […] before the first injection of anti-Col7 IgG (day −2). This application was continued throughout the experiment until its last day on day 11. In the control groups the mice received only the vehicle subcutaneously, or 20 mg/kg methylprednisolone once daily.
To generate antibodies directed to murine type VII collagen (“anti-COL7”), New Zealand White rabbits were immunized with 200 μg of a protein mixture containing three different recombinant proteins (“Col7A, B, and C”) derived from the non-collagenous 1 (NC1) domain of collagen VII together with incomplete Freund's adjuvant. IgGs were isolated from the serum of immunized rabbits by use of protein G, and afterwards IgGs were affinity-purified with his-Col7 to specifically obtain rabbit anti-Col7 IgG. Antibodies were quality checked by determining the titer and the potency in the cryosection assay.
(§3) Starting on day 4, the extent of skin lesions was scored in each individual mouse every other day. […] The percentage of the total body surface affected by skin lesions (ABSA) was calculated.
Two independent experiments were conducted.

experimental EBA [7] = assay: Experimental EBA, prophylactic PAS-L-Coversin versus Coversin (Example 4); type: in vivo, mice; conditions: 2.5 mg/kg Coversin; for Clinical score of experimental EBA: prophylactic
Description: as §2, §3
In a further experiment, the effect of PAS-L-Coversin was assessed. Mice were treated with 0.1 mg/kg, 10 mg/kg, 1 mg/kg PAS-L-Coversin, or 2.5 mg/kg Coversin, with the experiment being carried out as described above. […] The sequence of the L-Coversin sequence is a variant of the mature Coversin sequence (SEQ ID NO: 4) in which the following residues have been modified: Ala44 to Asn, Met116 to Gln, Leu117 to Ser, Gly121 to Ala, Leu122 to Asp, Glu123 to Ala and Asp149 to Gly, (referred to as variant 2, sequence is dsesdctgse pvdafqafse gkeayvlvrs tdpkardclk gepNgekqdn tlpvmmtfkn gtdwastdwt ftldgakvta tlgnitqnre vvydsqshhc hvdkvekevp dyemwQSdag ADAveveccr qkleelasgr nqmyphlkGc (SEQ ID NO:23), where the changes relative to the native Coversin sequence of SEQ ID NO:4 are in capitals). Because of the higher molecule weight of the PAS-L-Cov, 10 mg/kg PAS-L-Cov corresponds to 2.5 mg/kg Coversin. In the first experiment (FIG. 6A) the 10 mg/kg dose but not 1 mg/kg or 0.1 mg/kg dose of PAS-L-Coversin reduced ABSA compared to control. In the second experiment (FIG. 6B), the 10 mg/kg dose and the 1 mg/kg but not the 0.1 mg/kg dose of PAS-L-Coversin reduced ABSA compared to control.

C5 [8] = target: T4, C5 (Mus musculus, UniProt P06684); assay: Prevention of C5 cleavage by C5 convertase in mouse serum; type: biochemical
T4 construct: from tissue; host or cells: mouse serum
Description: as §1

C5 [9] = target: T3, C5; conditions: surface plasmon resonance, ref [31]; cited from earlier work
Target sequence in this assay (P01031 19-1676): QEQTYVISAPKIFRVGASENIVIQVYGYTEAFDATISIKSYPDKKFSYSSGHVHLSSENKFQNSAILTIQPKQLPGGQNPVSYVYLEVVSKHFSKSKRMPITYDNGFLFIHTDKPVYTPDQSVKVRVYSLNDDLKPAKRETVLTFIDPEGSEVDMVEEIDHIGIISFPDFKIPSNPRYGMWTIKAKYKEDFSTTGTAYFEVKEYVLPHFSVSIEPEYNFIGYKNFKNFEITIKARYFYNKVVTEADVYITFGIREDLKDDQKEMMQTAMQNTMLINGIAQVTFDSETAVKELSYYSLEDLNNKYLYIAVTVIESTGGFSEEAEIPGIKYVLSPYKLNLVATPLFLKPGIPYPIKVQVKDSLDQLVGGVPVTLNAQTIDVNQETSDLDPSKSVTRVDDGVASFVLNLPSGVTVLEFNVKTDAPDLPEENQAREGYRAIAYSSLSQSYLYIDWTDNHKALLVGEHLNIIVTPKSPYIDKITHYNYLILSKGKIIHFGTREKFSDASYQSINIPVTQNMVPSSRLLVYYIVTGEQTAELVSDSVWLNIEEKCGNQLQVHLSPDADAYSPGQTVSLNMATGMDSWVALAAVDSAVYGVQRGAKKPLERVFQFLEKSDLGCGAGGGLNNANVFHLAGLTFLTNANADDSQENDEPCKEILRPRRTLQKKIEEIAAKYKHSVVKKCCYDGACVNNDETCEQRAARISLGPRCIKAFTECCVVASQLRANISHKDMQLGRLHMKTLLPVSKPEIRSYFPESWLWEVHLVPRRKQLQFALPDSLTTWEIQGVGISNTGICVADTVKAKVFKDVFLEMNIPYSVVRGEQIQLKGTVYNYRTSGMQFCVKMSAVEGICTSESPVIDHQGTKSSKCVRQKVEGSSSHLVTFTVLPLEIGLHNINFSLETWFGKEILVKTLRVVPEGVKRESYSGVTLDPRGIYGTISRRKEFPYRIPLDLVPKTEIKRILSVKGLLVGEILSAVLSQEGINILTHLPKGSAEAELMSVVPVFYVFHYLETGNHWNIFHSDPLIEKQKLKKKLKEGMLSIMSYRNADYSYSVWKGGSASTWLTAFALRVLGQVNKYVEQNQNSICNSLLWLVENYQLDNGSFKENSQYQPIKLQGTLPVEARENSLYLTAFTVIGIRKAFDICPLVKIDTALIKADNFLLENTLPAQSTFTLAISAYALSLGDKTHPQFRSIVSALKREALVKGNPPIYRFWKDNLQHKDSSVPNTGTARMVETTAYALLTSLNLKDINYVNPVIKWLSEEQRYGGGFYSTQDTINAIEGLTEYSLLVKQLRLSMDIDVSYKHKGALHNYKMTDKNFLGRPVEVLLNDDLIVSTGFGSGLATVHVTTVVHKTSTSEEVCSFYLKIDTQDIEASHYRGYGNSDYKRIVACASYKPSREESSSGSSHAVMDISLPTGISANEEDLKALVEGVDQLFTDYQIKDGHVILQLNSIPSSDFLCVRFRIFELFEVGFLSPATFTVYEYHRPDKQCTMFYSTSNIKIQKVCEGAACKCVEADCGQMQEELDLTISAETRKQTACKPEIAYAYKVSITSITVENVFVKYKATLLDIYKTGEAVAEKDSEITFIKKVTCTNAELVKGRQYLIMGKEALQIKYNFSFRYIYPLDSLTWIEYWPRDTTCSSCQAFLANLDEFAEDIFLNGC

C5 [10] = target: T3, C5; assay: C5 binding of L-Coversin (method not given); conditions: mutated Coversin sequence (variant 2)
Target sequence in this assay (P01031 19-1676): as above

[11] = LTB4 binding of L-Coversin (method not given); conditions: mutated Coversin sequence (variant 2)

T2 sequence (P08650 19-1681): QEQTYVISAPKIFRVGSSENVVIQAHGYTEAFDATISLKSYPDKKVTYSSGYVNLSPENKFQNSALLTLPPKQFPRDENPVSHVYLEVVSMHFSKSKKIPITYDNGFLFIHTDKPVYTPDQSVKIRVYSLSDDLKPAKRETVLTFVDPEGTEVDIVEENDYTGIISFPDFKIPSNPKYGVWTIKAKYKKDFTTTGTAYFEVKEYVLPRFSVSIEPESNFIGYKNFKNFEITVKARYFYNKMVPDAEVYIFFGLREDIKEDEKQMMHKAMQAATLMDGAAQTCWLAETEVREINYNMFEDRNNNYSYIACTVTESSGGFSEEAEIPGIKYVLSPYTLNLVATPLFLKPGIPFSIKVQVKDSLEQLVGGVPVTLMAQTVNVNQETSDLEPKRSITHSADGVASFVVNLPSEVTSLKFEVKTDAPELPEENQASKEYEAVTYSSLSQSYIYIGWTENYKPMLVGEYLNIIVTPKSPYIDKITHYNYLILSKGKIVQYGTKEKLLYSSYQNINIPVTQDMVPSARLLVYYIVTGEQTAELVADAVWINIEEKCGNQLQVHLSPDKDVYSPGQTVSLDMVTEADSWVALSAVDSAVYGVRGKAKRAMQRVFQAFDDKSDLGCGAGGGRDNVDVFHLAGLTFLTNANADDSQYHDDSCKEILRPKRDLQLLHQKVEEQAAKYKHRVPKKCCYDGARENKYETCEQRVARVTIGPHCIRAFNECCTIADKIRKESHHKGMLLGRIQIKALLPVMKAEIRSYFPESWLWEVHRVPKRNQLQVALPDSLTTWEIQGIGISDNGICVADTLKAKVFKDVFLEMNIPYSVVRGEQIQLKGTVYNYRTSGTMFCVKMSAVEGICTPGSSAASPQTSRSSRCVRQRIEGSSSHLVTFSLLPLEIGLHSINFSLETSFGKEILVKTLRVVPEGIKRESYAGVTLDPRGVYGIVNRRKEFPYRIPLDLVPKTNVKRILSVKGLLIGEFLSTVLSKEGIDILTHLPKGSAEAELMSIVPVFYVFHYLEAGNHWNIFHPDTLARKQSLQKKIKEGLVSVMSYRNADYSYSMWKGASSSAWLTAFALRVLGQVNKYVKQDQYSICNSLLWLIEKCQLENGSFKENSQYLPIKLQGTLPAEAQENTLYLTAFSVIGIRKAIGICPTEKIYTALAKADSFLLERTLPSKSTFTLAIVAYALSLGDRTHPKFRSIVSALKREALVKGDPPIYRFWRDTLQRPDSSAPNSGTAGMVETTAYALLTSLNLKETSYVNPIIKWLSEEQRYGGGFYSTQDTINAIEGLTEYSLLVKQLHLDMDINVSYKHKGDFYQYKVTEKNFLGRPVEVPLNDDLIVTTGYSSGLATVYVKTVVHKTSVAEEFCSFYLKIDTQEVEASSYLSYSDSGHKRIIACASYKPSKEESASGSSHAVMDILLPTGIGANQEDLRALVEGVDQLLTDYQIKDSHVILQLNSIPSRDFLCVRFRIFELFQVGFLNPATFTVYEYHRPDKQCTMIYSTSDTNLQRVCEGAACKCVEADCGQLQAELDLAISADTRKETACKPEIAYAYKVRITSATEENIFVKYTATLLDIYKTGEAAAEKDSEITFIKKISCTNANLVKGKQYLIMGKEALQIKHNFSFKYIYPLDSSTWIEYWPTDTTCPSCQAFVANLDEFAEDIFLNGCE
T4 sequence (P06684 679-1680 limits assumed): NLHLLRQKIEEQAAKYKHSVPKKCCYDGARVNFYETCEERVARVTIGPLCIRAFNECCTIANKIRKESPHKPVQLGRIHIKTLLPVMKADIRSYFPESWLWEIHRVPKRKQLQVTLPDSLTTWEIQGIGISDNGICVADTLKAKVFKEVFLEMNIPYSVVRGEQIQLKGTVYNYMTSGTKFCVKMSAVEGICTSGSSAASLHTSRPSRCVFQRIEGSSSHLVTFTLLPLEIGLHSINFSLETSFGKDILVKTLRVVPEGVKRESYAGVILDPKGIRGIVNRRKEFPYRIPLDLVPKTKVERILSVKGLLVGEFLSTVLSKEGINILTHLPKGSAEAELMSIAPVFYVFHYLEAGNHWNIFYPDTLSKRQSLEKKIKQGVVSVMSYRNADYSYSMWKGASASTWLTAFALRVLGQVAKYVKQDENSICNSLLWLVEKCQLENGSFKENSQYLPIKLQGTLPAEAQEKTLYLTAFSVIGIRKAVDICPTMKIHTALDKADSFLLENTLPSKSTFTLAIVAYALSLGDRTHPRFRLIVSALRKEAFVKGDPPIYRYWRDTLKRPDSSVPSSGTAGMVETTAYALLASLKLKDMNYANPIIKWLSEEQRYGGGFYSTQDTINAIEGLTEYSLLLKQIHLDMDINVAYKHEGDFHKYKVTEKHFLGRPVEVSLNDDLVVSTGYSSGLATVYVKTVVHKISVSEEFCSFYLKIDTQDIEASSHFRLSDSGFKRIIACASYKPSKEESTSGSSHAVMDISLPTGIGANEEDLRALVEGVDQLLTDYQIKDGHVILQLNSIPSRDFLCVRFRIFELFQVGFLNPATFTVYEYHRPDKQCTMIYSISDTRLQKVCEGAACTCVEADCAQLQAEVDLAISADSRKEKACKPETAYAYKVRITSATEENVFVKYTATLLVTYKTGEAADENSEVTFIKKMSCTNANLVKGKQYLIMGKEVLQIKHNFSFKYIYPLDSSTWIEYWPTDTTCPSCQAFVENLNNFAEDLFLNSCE
T4 sequence (P06684 19-674 partner limits assumed): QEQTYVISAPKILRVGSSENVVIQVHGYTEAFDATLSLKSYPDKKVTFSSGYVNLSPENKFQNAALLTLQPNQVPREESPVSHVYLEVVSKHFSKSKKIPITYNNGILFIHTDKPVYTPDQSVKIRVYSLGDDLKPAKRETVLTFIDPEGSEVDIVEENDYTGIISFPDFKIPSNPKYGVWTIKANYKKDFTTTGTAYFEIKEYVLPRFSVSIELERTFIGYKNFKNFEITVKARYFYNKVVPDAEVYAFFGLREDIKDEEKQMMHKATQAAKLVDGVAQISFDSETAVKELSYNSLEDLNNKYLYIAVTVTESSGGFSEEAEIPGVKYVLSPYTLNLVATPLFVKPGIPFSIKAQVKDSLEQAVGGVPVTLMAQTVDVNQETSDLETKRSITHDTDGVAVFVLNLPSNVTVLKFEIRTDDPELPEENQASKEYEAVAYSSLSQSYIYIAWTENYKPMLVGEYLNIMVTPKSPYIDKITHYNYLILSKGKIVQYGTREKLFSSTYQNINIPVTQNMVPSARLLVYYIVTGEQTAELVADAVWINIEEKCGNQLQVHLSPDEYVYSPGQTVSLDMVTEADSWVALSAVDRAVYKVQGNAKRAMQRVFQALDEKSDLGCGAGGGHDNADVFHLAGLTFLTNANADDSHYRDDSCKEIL

CCCCC/C=C\C[C@@H](O)/C=C/C=C/C=C\[C@@H](O)CCCC(=O)O [LTB4, Leukotriene B4]
Kd [1]: 0.2 to 0.3 nM

CC(c1cc2ccccc2s1)N(O)C(N)=O (stereo not shown) [Zileuton, N-[1-(1-benzothien-2-yl)ethyl]-N-hydroxyurea]
clinical score day 7 (Experimental EBA [2]; 0.6-0.8 mg/mouse/day in drinking water, female mice, control group 9.2±0.7): 5.9±0.5 % of affected surface body area | disease severity as compared to control group (Experimental EBA [2]; from day 7 until end-point, 0.6-0.8 mg/mouse/day): significantly reduced disease severity

Coversin: tick Ornithodoros moubata protein, amino acids 19 to 168 of SEQ ID NO: 2 (SEQ ID NO: 4); binds C5 and LTB4
Two-way ANOVA, vehicle control versus Coversin ([3]; Experiment 1 (FIG. 7), females): significant differences | ABSA ([3]; Experiment 1, 2.5 mg/kg Coversin, vehicle about 7%): effective in reducing ABSA | skin inflammation measured by absolute body surface area affected (ABSA), dose dependence ([3]; Experiment 1, females, 125 and 2500 μg/kg 2× daily s.c. from day 5): dose-dependently ameliorated skin inflammation | Two-way ANOVA, vehicle control versus Coversin ([3]; Experiment 2 (FIG. 8), males): significant differences | skin inflammation, dose dependence ([3]; Experiment 2 (FIG. 8), males, 125 and 2500 μg/kg 2× daily s.c. from day 5): dose-dependently ameliorated skin inflammation | skin inflammation measured by ABSA ([3]; Experiment 2, 2.5 mg/kg Coversin, vehicle peaked at about 4%): significantly (P<0.01) ameliorated skin inflammation | deaths during treatment ([3]; the two experiments, up to day 12): no deaths | IC50, binding C5 and preventing its cleavage by C5 convertase (C5 [4]): approximately 0.02 mg/ml | IC50, binding C5 and preventing its cleavage by C5 convertase (C5 [5]): approximately 0.02 mg/ml | Two-way ANOVA, vehicle control versus Coversin (experimental EBA [6]; dose 250): statistically significant difference | Two-way ANOVA, vehicle control versus Coversin (experimental EBA [6]; dose 2500): statistically significant difference | Clinical score of experimental EBA (experimental EBA [6]; combined results of experiments 1 and 2 (FIG. 5), all doses): ameliorated disease | reduction of percentage ABSA compared with previously tested agents (Zileuton, methylprednisolone) (experimental EBA [6]; comparison with similar earlier experiments, particularly at 2.5 mg/kg and 0.25 mg/kg): to a greater degree; also recorded: greater effect | Clinical score of experimental EBA (experimental EBA [6]; experiment 1 (FIG. 3), all doses of Coversin, vs vehicle control group and methylprednisolone group): ameliorated disease | Clinical score of experimental EBA (experimental EBA [6]; experiment 2 (FIG. 4), all doses of Coversin, vs vehicle control group and methylprednisolone group): ameliorated disease | significance of effect compared to vehicle control group (experimental EBA [6]; experiment 2 (FIG. 4), only at the 2.5 mg/kg dose): significant effect | difference in ABSA between vehicle and treated (experimental EBA [6]; first experiment, 0.25 mg/kg dose, P 0.0023 by two tailed t-test): 63% | mean ABSA score (SD) (experimental EBA [6]; first experiment, 0.25 mg/kg dose, day 10, vehicle 6.23+1.1): 2.65+0.4 | percentage ABSA (experimental EBA [6]; first experiment, Coversin 25 μg/kg s.c. twice daily): reduced | percentage ABSA (experimental EBA [6]; first experiment, Coversin 250 μg/kg s.c. twice daily): further reduced | percentage ABSA (experimental EBA [6]; first experiment, Coversin 2500 μg/kg s.c. twice daily): further reduced | Clinical score of experimental EBA (experimental EBA [7]; Example 4, experiment 1 (FIG. 6A)): ameliorated disease | Clinical score of experimental EBA (experimental EBA [7]; Example 4, experiment 2 (FIG. 6B)): ameliorated disease | statistical significance of effect on ABSA (experimental EBA [7]; second experiment (FIG. 6B)): statistically significant effect | IC50, binding C5 and preventing its cleavage by C5 convertase (C5 [8]): approximately 0.02 mg/ml | Kd (C5 [9]): 1 nM

B1: L-Coversin: SEQ ID NO: 23; SEQ ID NO: 4 with Ala44Asn, Met116Gln, Leu117Ser, Gly121Ala, Leu122Asp, Glu123Ala, Asp149Gly (protein)
chain: DSESDCTGSEPVDAFQAFSEGKEAYVLVRSTDPKARDCLKGEPNGEKQDNTLPVMMTFKNGTDWASTDWTFTLDGAKVTATLGNLTQNREVVYDSQSHHCHVDKVEKEVPDYEMWQSDAGADAVEVECCRQKLEELASGRNQMYPHLKGC
modifications: Coversin variant 2
C5 binding (C5 [10]): does not bind C5 | LTB4 binding [11]: binds LTB4
